Measurements from patent US20140235616A1, “PYRAZOLOQUINOLINONE DERIVATIVES, PREPARATION THEREOF AND THERAPEUTIC USE THEREOF” (SANOFI, priority 2011, published 2014).

What follows are molecules tested against T1, human MetAP2 (Homo sapiens, UniProt P50579) (assay: MetAP2 enzymatic screening test (isolated enzyme, Met-Pro-Arg-pNa substrate, absorbance at 405 nm)). Conditions: read-out: % inhibition hMETAP2 at 100 nM.
T1 construct: made in house; host or cells: Sf9 insect cells (baculovirus)
Assay type: biochemical
Experimental: The compounds according to the invention underwent biochemical studies in order to determine their capacity to inhibit the enzyme methionine-aminopeptidase2 (enzymatic test on isolated enzyme).
MetAP2 Enzymatic Screening Test
For the enzymatic test, human MetAP2 protein was obtained from a culture supernatant of insect cells (sf9) infected with MetAP2 recombinant baculovirus.
Before performing the experiment, dialysis of the MetAP2 supernatant is performed over 24 hours at 4° C. in a buffer (10 mM Hepes, 100 mM KCl, 10% glycerol, pH 7.4) in the presence of EDTA (1 mM) over the first 12 hours.
The dialysis supernatant is recovered and manganese, used as cofactor, is added to a final concentration of 300 μM.
The enzymatic test is a test in two steps.
Consequently, the second step consists in reacting the peptides cleaved in the preceding step with a second peptidase in order to release the chromophore.

T1 sequence (P50579 whole entry): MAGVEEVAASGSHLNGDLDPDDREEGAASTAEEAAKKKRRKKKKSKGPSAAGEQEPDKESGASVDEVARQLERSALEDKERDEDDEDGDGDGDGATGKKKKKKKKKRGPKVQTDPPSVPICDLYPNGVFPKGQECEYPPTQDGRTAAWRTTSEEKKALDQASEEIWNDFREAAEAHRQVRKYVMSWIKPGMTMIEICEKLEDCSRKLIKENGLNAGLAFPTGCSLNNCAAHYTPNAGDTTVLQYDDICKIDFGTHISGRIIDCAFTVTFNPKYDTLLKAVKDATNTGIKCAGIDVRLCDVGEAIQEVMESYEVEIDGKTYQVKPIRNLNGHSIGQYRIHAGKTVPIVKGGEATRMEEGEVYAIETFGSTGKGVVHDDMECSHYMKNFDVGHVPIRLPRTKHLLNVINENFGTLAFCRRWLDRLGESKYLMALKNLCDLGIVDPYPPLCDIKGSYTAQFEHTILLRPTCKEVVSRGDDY

| Structure (SMILES) | inhibition at 0.1 µM [%] |
| --- | --- |
| CCn1c(=O)c2cn[nH]c2c2ccc(-c3ccc(N)cc3C)cc21 [Compound 24, 7-(4-amino-2-methylphenyl)-5-ethyl-1,5-dihydro-4H-pyrazolo[4,3-c]quinolin-4-one] | 67 |
| CCn1c(=O)c2cn[nH]c2c2ccc(-c3cc(OC)ccc3F)cc21 [Compound 28, 5-ethyl-7-(2-fluoro-5-methoxyphenyl)-1,5-dihydro-4H-pyrazolo[4,3-c]quinolin-4-one] | 67 |
| CCNC(=O)c1cccc(-c2ccc3c4[nH]ncc4c(=O)n(CC)c3c2)c1 [Compound 35, N-ethyl-3-(5-ethyl-4-oxo-4,5-dihydro-1H-pyrazolo[4,3-c]quinolin-7-yl)benzamide] | 62 |
| CCn1c(=O)c2cn[nH]c2c2ccc(-c3cccc(C(=O)NCCN(C)C)c3)cc21 [Compound 37, N-(2-dimethylaminoethyl)-3-(5-ethyl-4-oxo-4,5-dihydro-1H-pyrazolo[4,3-c]quinolin-7-yl)benzamide] | 60 |
| CCn1c(=O)c2cn[nH]c2c2ccc(-c3cccc(C(=O)NCCOC)c3)cc21 [Compound 39, 3-(5-ethyl-4-oxo-4,5-dihydro-1H-pyrazolo[4,3-c]quinolin-7-yl)-N-(2-methoxyethyl)benzamide] | 60 |
| O=c1c2cn[nH]c2c2ccc(-c3cccc(O)c3)cc2n1CC(F)(F)F [Compound 40, 7-(3-hydroxyphenyl)-5-(2,2,2-trifluoroethyl)-1,5-dihydro-4H-pyrazolo[4,3-c]quinolin-4-one] | 40 |
| O=c1c2cn[nH]c2c2ccc(-c3ccnc(Cl)c3F)cc2n1CC(F)(F)F [Compound 41, 7-(2-chloro-3-fluoropyrid-4-yl)-5-(2,2,2-trifluoroethyl)-1,5-dihydro-4H-pyrazolo[4,3-c]quinolin-4-one] | 40 |
| COc1ccc(-c2ccc3c4[nH]ncc4c(=O)n(CC(F)(F)F)c3c2)c(CO)c1 [Compound 49, 7-(2-hydroxymethyl-4-methoxyphenyl)-5-(2,2,2-trifluoroethyl)-1,5-dihydro-4H-pyrazolo[4,3-c]quinolin-4-one] | 45 |
| O=c1c2cn[nH]c2c2ccc(-c3cccc(Cl)c3O)cc2n1CC(F)(F)F [Compound 53, 7-(3-chloro-2-hydroxyphenyl)-5-(2,2,2-trifluoroethyl)-1,5-dihydro-4H-pyrazolo[4,3-c]quinolin-4-one] | 43 |
| COC(=O)c1ccc(-c2ccc3c4[nH]ncc4c(=O)n(CC(F)(F)F)c3c2)c(N)c1 [Compound 55, methyl 3-amino-4-[4-oxo-5-(2,2,2-trifluoroethyl)-4,5-dihydro-1H-pyrazolo[4,3-c]quinolin-7-yl]benzoate] | 40 |
| O=c1c2cn[nH]c2c2ccc(-c3cc(Cl)cnc3Cl)cc2n1CC(F)(F)F [Compound 57, 7-(2,5-dichloropyrid-3-yl)-5-(2,2,2-trifluoroethyl)-1,5-dihydro-4H-pyrazolo[4,3-c]quinolin-4-one] | 38 |
| COc1ccc(-c2ccc3c4[nH]ncc4c(=O)n(CC(F)(F)F)c3c2)cn1 [Compound 128, 7-(6-methoxypyrid-3-yl)-5-(2,2,2-trifluoroethyl)-1,5-dihydro-4H-pyrazolo[4,3-c]quinolin-4-one] | 41 |
| O=c1c2cn[nH]c2c2ccc(-c3cc(Cl)cnc3F)cc2n1CC(F)(F)F [Compound 129, 7-(5-chloro-2-fluoropyrid-3-yl)-5-(2,2,2-trifluoroethyl)-1,5-dihydro-4H-pyrazolo[4,3-c]quinolin-4-one] | 36 |
| CC(=O)Nc1ncc(C)cc1-c1ccc2c3[nH]ncc3c(=O)n(CC(F)(F)F)c2c1 [Compound 130, N-{5-methyl-3-[4-oxo-5-(2,2,2-trifluoroethyl)-4,5-dihydro-1H-pyrazolo[4,3-c]quinolin-7-yl]pyrid-2-yl}acetamide] | 48 |
| O=c1c2cn[nH]c2c2ccc(-c3ccccc3CCO)cc2n1CC(F)(F)F [Compound 131, 7-[2-(2-hydroxy-ethyl)phenyl]-5-(2,2,2-trifluoroethyl)-1,5-dihydro-4H-pyrazolo[4,3-c]quinolin-4-one] | 46 |
| Nc1ncc(F)cc1-c1ccc2c3[nH]ncc3c(=O)n(CC(F)(F)F)c2c1 [Compound 132, 7-(2-amino-5-fluoropyrid-3-yl)-5-(2,2,2-trifluoroethyl)-1,5-dihydro-4H-pyrazolo[4,3-c]quinolin-4-one] | 46 |
| O=c1c2cn[nH]c2c2ccc(-c3ccccc3S(=O)(=O)N3CCCC3)cc2n1CC(F)(F)F [Compound 133, 7-[2-(pyrrolidine-1-sulfonyl)phenyl]-5-(2,2,2-trifluoroethyl)-1,5-dihydro-4H-pyrazolo[4,3-c]quinolin-4-one] | 45 |
| CC(C)NS(=O)(=O)c1ccccc1-c1ccc2c3[nH]ncc3c(=O)n(CC(F)(F)F)c2c1 [Compound 134, N-isopropyl-2-[4-oxo-5-(2,2,2-trifluoroethyl)-4,5-dihydro-1H-pyrazolo[4,3-c]quinolin-7-yl]benzenesulfonamide] | 45 |
| Cc1cnc(F)c(-c2ccc3c4[nH]ncc4c(=O)n(CC(F)(F)F)c3c2)c1 [Compound 135, 7-(2-fluoro-5-methylpyrid-3-yl)-5-(2,2,2-trifluoroethyl)-1,5-dihydro-4H-pyrazolo[4,3-c]quinolin-4-one] | 45 |

Now from value to molecule:

| inhibition at 0.1 µM [%] | Structure (SMILES) |
| --- | --- |
| 78 | CCn1c(=O)c2cn[nH]c2c2ccc(-c3ccc(C(=O)NCCCN(C)C)cc3)cc21 [Compound 9, N-(3-dimethylaminopropyl)-4-(5-ethyl-4-oxo-4,5-dihydro-1H-pyrazolo[4,3-c]quinolin-7-yl)benzamide] |
| 77 | CCn1c(=O)c2cn[nH]c2c2ccc(-c3ccc(N4CCNCC4)cc3)cc21 [Compound 10, 5-ethyl-7-(4-piperazin-1-ylphenyl)-1,5-dihydro-4H-pyrazolo[4,3-c]quinolin-4-one] |
| 76 | CCn1c(=O)c2cn[nH]c2c2ccc(-c3ccc(N4CCN(C)CC4)cc3)cc21 [Compound 11, 5-ethyl-7-[4-(4-methylpiperazin-1-yl)phenyl]-1,5-dihydro-4H-pyrazolo[4,3-c]quinolin-4-one] |
| 75 | CCn1c(=O)c2cn[nH]c2c2ccc(-c3ccc(C(=O)NCCN(C)C)cc3)cc21 [Compound 13, N-(2-dimethylaminoethyl)-4-(5-ethyl-4-oxo-4,5-dihydro-1H-pyrazolo[4,3-c]quinolin-7-yl)benzamide] |
| 74 | CCn1c(=O)c2cn[nH]c2c2ccc(-c3ccc(C(C)N(C)C)cc3)cc21 (centres unmarked) [Compound 15, 7-[4-(1-dimethylaminoethyl)phenyl]-5-ethyl-1,5-dihydro-4H-pyrazolo[4,3-c]quinolin-4-one] |
| 72 | CCn1c(=O)c2cn[nH]c2c2ccc(-c3ccc(C(=O)N4CCNCC4)cc3)cc21 [Compound 18, 5-ethyl-7-[4-(piperazine-1-carbonyl)phenyl]-1,5-dihydro-4H-pyrazolo[4,3-c]quinolin-4-one] |
| 70 | CCn1c(=O)c2cn[nH]c2c2ccc(-c3cnc(N4CCNCC4)nc3)cc21 [Compound 20, 5-ethyl-7-(2-piperazin-1-ylpyrimidin-5-yl)-1,5-dihydro-4H-pyrazolo[4,3-c]quinolin-4-one] |
| 70 | CCn1c(=O)c2cn[nH]c2c2ccc(-c3ccc(C(=O)N4CCN(C)CC4)cc3)cc21 [Compound 21, 5-ethyl-7-[4-(4-methylpiperazine-1-carbonyl)phenyl]-1,5-dihydro-4H-pyrazolo[4,3-c]quinolin-4-one] |
| 69 | CCn1c(=O)c2cn[nH]c2c2ccc(-c3ccc(C(C)N4CCCC4)cc3)cc21 (centres unmarked) [Compound 22, 5-ethyl-7-[4-(1-pyrrolidin-1-yl-ethyl)phenyl]-1,5-dihydro-4H-pyrazolo[4,3-c]quinolin-4-one] |
| 67 | CCn1c(=O)c2cn[nH]c2c2ccc(-c3ccc(F)c(C(=O)NC)c3)cc21 [Compound 27, 5-(5-ethyl-4-oxo-4,5-dihydro-1H-pyrazolo[4,3-c]quinolin-7-yl)-2-fluoro-N-methylbenzamide] |
| 67 | CCn1c(=O)c2cn[nH]c2c2ccc(-c3ccc(C(=O)N4CCOCC4)c(Cl)c3)cc21 [Compound 29, 7-[3-chloro-4-(morpholine-4-carbonyl)phenyl]-5-ethyl-1,5-dihydro-4H-pyrazolo[4,3-c]quinolin-4-one] |
| 64 | CCn1c(=O)c2cn[nH]c2c2ccc(-c3cnc(N4CCN(C)CC4)nc3)cc21 [Compound 31, 5-ethyl-7-[2-(4-methylpiperazin-1-yl)pyrimidin-5-yl]-1,5-dihydro-4H-pyrazolo[4,3-c]quinolin-4-one] |
| 62 | CCn1c(=O)c2cn[nH]c2c2ccc(-c3ccc(C(N)=O)c(Cl)c3)cc21 [Compound 33, 2-chloro-4-(5-ethyl-4-oxo-4,5-dihydro-1H-pyrazolo[4,3-c]quinolin-7-yl)benzamide] |
| 62 | CCn1c(=O)c2cn[nH]c2c2ccc(-c3ccc4[nH]ncc4c3)cc21 [Compound 34, 5-ethyl-7-(1H-indazol-5-yl)-1,5-dihydro-4H-pyrazolo[4,3-c]quinolin-4-one] |
| 61 | CCn1c(=O)c2cn[nH]c2c2ccc(-c3ccc(F)c(C(N)=O)c3)cc21 [Compound 36, 5-(5-ethyl-4-oxo-4,5-dihydro-1H-pyrazolo[4,3-c]quinolin-7-yl)-2-fluoro-benzamide] |
| 60 | CCn1c(=O)c2cn[nH]c2c2ccc(-c3ccc(CNC(C)=O)cc3)cc21 [Compound 38, N-[4-(5-ethyl-4-oxo-4,5-dihydro-1H-pyrazolo[4,3-c]quinolin-7-yl)benzyl]acetamide] |
